Source: PubChem BioAssay AID2060507 (Molecular Pharmacology Branch, DTP, NCI, 2025)

Tested on: 519858-162-T-J1-PDC complex spheroid viability
Assay: Anticancer human tumor 519858-162-T-J1-PDC patient-derived colon adenocarcinoma cell line growth inhibition [GQUAD]
Details: for IC50: curve of first compound; for viability, T/C: stronger effect = lower value
Method in brief: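 Multi-cell-type spheroids of tumor cells with HUVEC and mesenchymal stem cells, treated with drug combinations. Concentrations descend in half-log steps from near clinical Cmax, or from 10 microM where Cmax is unknown; viability read-out.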

[1] = second compound 0.0316 µM, first compound 0.0316 µM
[2] = second compound 0.0316 µM, first compound 0.1 µM
[3] = second compound 0.0316 µM, first compound 0.316 µM
[4] = second compound 0.0316 µM, first compound 1 µM
[5] = second compound 0.0316 µM, first compound 3.16 µM
[6] = second compound 0.0316 µM, first compound 10 µM
[7] = second compound 0.1 µM, first compound 0.0316 µM
[8] = second compound 0.1 µM, first compound 0.1 µM
[9] = second compound 0.1 µM, first compound 0.316 µM
[10] = second compound 0.1 µM, first compound 1 µM
[11] = second compound 0.1 µM, first compound 3.16 µM
[12] = second compound 0.1 µM, first compound 10 µM
[13] = second compound 0.316 µM, first compound 0.0316 µM
[14] = second compound 0.316 µM, first compound 0.1 µM
[15] = second compound 0.316 µM, first compound 0.316 µM
[16] = second compound 0.316 µM, first compound 1 µM
[17] = second compound 0.316 µM, first compound 3.16 µM
[18] = second compound 0.316 µM, first compound 10 µM
[19] = second compound 1 µM, first compound 0.0316 µM
[20] = second compound 1 µM, first compound 0.1 µM
[21] = second compound 1 µM, first compound 0.316 µM
[22] = second compound 1 µM, first compound 1 µM
[23] = second compound 1 µM, first compound 3.16 µM
[24] = second compound 1 µM, first compound 10 µM
[25] = second compound 3.16 µM, first compound 0.0316 µM
[26] = second compound 3.16 µM, first compound 0.1 µM
[27] = second compound 3.16 µM, first compound 0.316 µM
[28] = second compound 3.16 µM, first compound 1 µM
[29] = second compound 3.16 µM, first compound 3.16 µM
[30] = second compound 3.16 µM, first compound 10 µM
[31] = second compound 10 µM, first compound 0.0316 µM
[32] = second compound 10 µM, first compound 0.1 µM
[33] = second compound 10 µM, first compound 0.316 µM
[34] = second compound 10 µM, first compound 1 µM
[35] = second compound 10 µM, first compound 3.16 µM
[36] = second compound 10 µM, first compound 10 µM
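Further: spheroids exposed to compounds for 7 days.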
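Wherever viability, T/C is given: 100% = DMSO vehicle control viability.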

## C#Cc1c(F)ccc2cc(O)cc(-c3ncc4c(N5CC6CCC(C5)N6)nc(OCC56CCCN5CC(F)C6)nc4c3F)c12 (stereo not given) + CN(C)c1ccc(Nc2c3ccc(NC(=O)CCN4CCCC4)cc3nc3cc(NC(=O)CCN4CCCC4)ccc23)cc1
Second compound 0.0316 µM
  IC50: > 10 µM
Second compound 0.1 µM
  IC50: > 10 µM
Second compound 0.316 µM
  IC50: > 10 µM
Second compound 1 µM
  IC50: > 10 µM
Second compound 3.16 µM
  IC50: > 10 µM
Second compound 10 µM
  IC50: > 10 µM
[1]
  viability, T/C: 117%
[2]
  viability, T/C: 100%
[3]
  viability, T/C: 99.8%
[4]
  viability, T/C: 70.8%
[5]
  viability, T/C: 72%
[6]
  viability, T/C: 99.5%
[7]
  viability, T/C: 86.2%
[8]
  viability, T/C: 85.3%
[9]
  viability, T/C: 89.4%
[10]
  viability, T/C: 93.2%
[11]
  viability, T/C: 70.2%
[12]
  viability, T/C: 62.7%
[13]
  viability, T/C: 134%
[14]
  viability, T/C: 87.8%
[15]
  viability, T/C: 93.1%
[16]
  viability, T/C: 77.3%
[17]
  viability, T/C: 82.1%
[18]
  viability, T/C: 77.6%
[19]
  viability, T/C: 112%
[20]
  viability, T/C: 97.4%
[21]
  viability, T/C: 78.1%
[22]
  viability, T/C: 66.2%
[23]
  viability, T/C: 91.7%
[24]
  viability, T/C: 62%
[25]
  viability, T/C: 92%
[26]
  viability, T/C: 85.5%
[27]
  viability, T/C: 118%
[28]
  viability, T/C: 74.5%
[29]
  viability, T/C: 72.9%
[30]
  viability, T/C: 62.9%
[31]
  viability, T/C: 66.9%
[32]
  viability, T/C: 55%
[33]
  viability, T/C: 77.8%
[34]
  viability, T/C: 48.9%
[35]
  viability, T/C: 89.3%
[36]
  viability, T/C: 55.6%

## COc1ncnc(C2CC2)c1-c1ncc2cnn(Cc3ccc(-c4nc(C(F)(F)F)cn4C(C)C)cc3)c2n1 + CN(C)c1ccc(Nc2c3ccc(NC(=O)CCN4CCCC4)cc3nc3cc(NC(=O)CCN4CCCC4)ccc23)cc1
Second compound 0.0316 µM
  IC50: > 10 µM
Second compound 0.1 µM
  IC50: > 10 µM
Second compound 0.316 µM
  IC50: > 10 µM
Second compound 1 µM
  IC50: > 10 µM
Second compound 3.16 µM
  IC50: > 10 µM
Second compound 10 µM
  IC50: > 10 µM
[1]
  viability, T/C: 120%
[2]
  viability, T/C: 83%
[3]
  viability, T/C: 103%
[4]
  viability, T/C: 89.3%
[5]
  viability, T/C: 99.6%
[6]
  viability, T/C: 115%
[7]
  viability, T/C: 93.4%
[8]
  viability, T/C: 97.8%
[9]
  viability, T/C: 102%
[10]
  viability, T/C: 75.6%
[11]
  viability, T/C: 91.4%
[12]
  viability, T/C: 103%
[13]
  viability, T/C: 86%
[14]
  viability, T/C: 117%
[15]
  viability, T/C: 116%
[16]
  viability, T/C: 76%
[17]
  viability, T/C: 66.5%
[18]
  viability, T/C: 84.9%
[19]
  viability, T/C: 85.1%
[20]
  viability, T/C: 80.7%
[21]
  viability, T/C: 67.5%
[22]
  viability, T/C: 68%
[23]
  viability, T/C: 73%
[24]
  viability, T/C: 72.4%
[25]
  viability, T/C: 114%
[26]
  viability, T/C: 79.7%
[27]
  viability, T/C: 52.2%
[28]
  viability, T/C: 56.6%
[29]
  viability, T/C: 54%
[30]
  viability, T/C: 69.8%
[31]
  viability, T/C: 58.7%
[32]
  viability, T/C: 53.3%
[33]
  viability, T/C: 99.4%
[34]
  viability, T/C: 61.9%
[35]
  viability, T/C: 51.7%
[36]
  viability, T/C: 104%

## CC(C)n1c(=O)n(C)c2cnc3cc(F)c(-c4ccc(OCCCN5CCCCC5)nc4)cc3c21 + Cc1[nH]c2ccc(F)cc2c1-c1nc2c3cccnc3c3ncccc3c2[nH]1
Second compound 0.0316 µM
  IC50: > 10 µM
Second compound 0.1 µM
  IC50: > 10 µM
Second compound 0.316 µM
  IC50: > 10 µM
Second compound 1 µM
  IC50: > 10 µM
Second compound 3.16 µM
  IC50: > 10 µM
Second compound 10 µM
  IC50: > 10 µM
[1]
  viability, T/C: 97.7%
[2]
  viability, T/C: 124%
[3]
  viability, T/C: 114%
[4]
  viability, T/C: 107%
[5]
  viability, T/C: 78.2%
[6]
  viability, T/C: 67.9%
[7]
  viability, T/C: 77.5%
[8]
  viability, T/C: 96.8%
[9]
  viability, T/C: 86.6%
[10]
  viability, T/C: 91.3%
[11]
  viability, T/C: 89.7%
[12]
  viability, T/C: 121%
[13]
  viability, T/C: 91.5%
[14]
  viability, T/C: 94.2%
[15]
  viability, T/C: 82%
[16]
  viability, T/C: 101%
[17]
  viability, T/C: 84.8%
[18]
  viability, T/C: 80.7%
[19]
  viability, T/C: 79.2%
[20]
  viability, T/C: 85.5%
[21]
  viability, T/C: 101%
[22]
  viability, T/C: 119%
[23]
  viability, T/C: 96.4%
[24]
  viability, T/C: 69.5%
[25]
  viability, T/C: 85.9%
[26]
  viability, T/C: 75.6%
[27]
  viability, T/C: 75.9%
[28]
  viability, T/C: 56.3%
[29]
  viability, T/C: 50.5%
[30]
  viability, T/C: 67.3%
[31]
  viability, T/C: 65.8%
[32]
  viability, T/C: 73.8%
[33]
  viability, T/C: 56.8%
[34]
  viability, T/C: 51.4%
[35]
  viability, T/C: 54.9%
[36]
  viability, T/C: 53%

## CC1COCCN1c1cc(C2(S(C)(=N)=O)CC2)nc(-c2ccnc3[nH]ccc23)n1 (stereo not given) + Cc1[nH]c2ccc(F)cc2c1-c1nc2c3cccnc3c3ncccc3c2[nH]1
Second compound 0.0316 µM
  IC50: > 10 µM
Second compound 0.1 µM
  IC50: > 10 µM
Second compound 0.316 µM
  IC50: > 10 µM
Second compound 1 µM
  IC50: > 10 µM
Second compound 3.16 µM
  IC50: > 10 µM
Second compound 10 µM
  IC50: > 10 µM
[1]
  viability, T/C: 87.1%
[2]
  viability, T/C: 91.3%
[3]
  viability, T/C: 96%
[4]
  viability, T/C: 113%
[5]
  viability, T/C: 82.8%
[6]
  viability, T/C: 81.3%
[7]
  viability, T/C: 68.2%
[8]
  viability, T/C: 106%
[9]
  viability, T/C: 75.4%
[10]
  viability, T/C: 73.6%
[11]
  viability, T/C: 91.7%
[12]
  viability, T/C: 79.3%
[13]
  viability, T/C: 121%
[14]
  viability, T/C: 111%
[15]
  viability, T/C: 104%
[16]
  viability, T/C: 87.8%
[17]
  viability, T/C: 67.3%
[18]
  viability, T/C: 96.2%
[19]
  viability, T/C: 71.8%
[20]
  viability, T/C: 81.6%
[21]
  viability, T/C: 75.8%
[22]
  viability, T/C: 73.7%
[23]
  viability, T/C: 61.4%
[24]
  viability, T/C: 75.3%
[25]
  viability, T/C: 74.8%
[26]
  viability, T/C: 79.5%
[27]
  viability, T/C: 87%
[28]
  viability, T/C: 55.6%
[29]
  viability, T/C: 73.2%
[30]
  viability, T/C: 54.6%
[31]
  viability, T/C: 65.2%
[32]
  viability, T/C: 74.7%
[33]
  viability, T/C: 55%
[34]
  viability, T/C: 60.2%
[35]
  viability, T/C: 67.8%
[36]
  viability, T/C: 44.1%

## O=C(c1cc(Cc2n[nH]c(=O)c3ccccc23)ccc1F)N1CCN(C(=O)C2CC2)CC1 + Cc1[nH]c2ccc(F)cc2c1-c1nc2c3cccnc3c3ncccc3c2[nH]1
Second compound 0.0316 µM
  IC50: > 10 µM
Second compound 0.1 µM
  IC50: > 10 µM
Second compound 0.316 µM
  IC50: > 10 µM
Second compound 1 µM
  IC50: > 10 µM
Second compound 3.16 µM
  IC50: < 0.0316 µM
Second compound 10 µM
  IC50: > 10 µM
[1]
  viability, T/C: 122%
[2]
  viability, T/C: 85.5%
[3]
  viability, T/C: 82.7%
[4]
  viability, T/C: 66.6%
[5]
  viability, T/C: 68%
[6]
  viability, T/C: 111%
[7]
  viability, T/C: 110%
[8]
  viability, T/C: 85.3%
[9]
  viability, T/C: 87.7%
[10]
  viability, T/C: 102%
[11]
  viability, T/C: 103%
[12]
  viability, T/C: 63.6%
[13]
  viability, T/C: 105%
[14]
  viability, T/C: 97.9%
[15]
  viability, T/C: 81.9%
[16]
  viability, T/C: 100%
[17]
  viability, T/C: 75.6%
[18]
  viability, T/C: 97.1%
[19]
  viability, T/C: 82.7%
[20]
  viability, T/C: 100%
[21]
  viability, T/C: 102%
[22]
  viability, T/C: 81.2%
[23]
  viability, T/C: 69.9%
[24]
  viability, T/C: 95.3%
[25]
  viability, T/C: 49.2%
[26]
  viability, T/C: 63%
[27]
  viability, T/C: 92%
[28]
  viability, T/C: 59.2%
[29]
  viability, T/C: 79.8%
[30]
  viability, T/C: 71.1%
[31]
  viability, T/C: 86.1%
[32]
  viability, T/C: 69.9%
[33]
  viability, T/C: 52.6%
[34]
  viability, T/C: 81.6%
[35]
  viability, T/C: 51.8%
[36]
  viability, T/C: 53.7%
